Patent US3962256A, “2-Aminomethyl benzimidazole derivatives” (Delalande S.A., priority 1973, dated 1976)

Experiments:
[1] = test system: gastric ulcers, provoked in a rat by tying of the pylorus (Shay ulcers); test: Antiulcerous: reduction of Shay ulcers (tying of the pylorus); type: in vivo; details: 50 mg/Kg/i.d.
Description: The compounds of formula (I) administered by intraduodenal means reduce the extent of gastric ulcers, provoked in a rat by tying of the pylorus (Shay ulcers).
By way of example, there is listed in the following Table IX, the results obtained by the administrations of 50 mg/Kg/i.d. of different compounds of formula (I).

[2] = Lethal doses / percentage mortality, oral; type: in vivo; details: 2 000 mg/Kg/p.o., 2000 mg/kg
Text: As a result of a comparison between the pharmacologically active doses mentioned above and the lethal doses listed in the following Table XII, the difference between said doses is sufficiently great to permit the utilisation of the compounds of formula (I) in therapeutics.

[3] = test system: explorations in the escape enclosure; test: Sedative: reduction of number of explorations in the escape enclosure; type: in vivo; details: 100 mg/Kg/p.o., mouse
Description: The compounds of formula (I), administered by oral means to the mouse, reduce the number of explorations in the escape enclosure.
By way of example, the following Table VIII lists the results obtained by the administration of 100 mg/Kg/p.o. of different compounds of formula (I).

[4] = test system: oedema caused by the sub-plantar injection of carraghenin; test: Antiinflammatory: reduction of sub-plantar oedema caused by carraghenin, rat; type: in vivo; details: 100 mg/Kg/p.o.
Description: These properties are shown by a diminution of the local oedema caused by the sub-plantar injection of a phlogogenic agent, such as carraghenin, in the rat following the oral administration of compounds of formula (I).
The following Table VI lists, by way of example, the percentage reduction of the oedems caused by the sub-plantar injection of carraghenin, resulting from the administration of 100 mg/Kg/p.o. of different compounds of formula (I).

[5] = test system: painful stretchings caused by the intraperitoneal injection of acetic acid; test: Analgesic: reduction of painful stretchings caused by intraperitoneal acetic acid, oral, mouse; type: in vivo; details: 100 mg/Kg/p.o.
Description: The compounds of formula (I), administered by oral means to the mouse, are capable of reducing the number of painful stretchings caused by the intraperitoneal injection of acetic acid.
By way of example, the following Table III lists the results obtained by administration of 100 mg/Kg/p.o. of different compounds of formula (I).

[6] = test system: bronchoconstriction provoked in the guinea-pig by acetylcholine; test: Antibronchoconstrictive and anticholinergic: bronchoconstriction by intravenous acetylcholine, Konzett method; type: in vivo; details: 100 mg/kg/i.d.
Text: Injected by intraveinous or intraduodenal means, the compounds of formula (I) are capable of opposing the bronchoconstriction provoked in the guinea-pig by the itraveinous injection of acetylcholine by the Konzett method.
By way of example, the following Table VII lists the results obtained by the administration of different compounds of formula (I)

[7] = test system: rat suffering from high blood pressure; test: Antihypertensive: return of systolic arterial pressure to normal in rats with high blood pressure; type: in vivo
Text: The compounds of formula (I), administered by oral means to a rat suffering from high blood pressure, are capable of lowering the systolic arteriel pressure.
By way of example, there is provided in the following Table IV the results obtained by administration of different compounds of formula (I).

volume of urine emitted = test: Diuretic: augmentation of urinary elimination; type: in vivo; details: 25 mg/Kg/p.o., mouse, 6 hours
Description: The compounds of formula (I), administered by oral means to the mouse, simultaneously with a volume of 1 ml. of an isotonic solution of sodium chloride per 25 g of the corporeal weight of the mouse, are capable of provoking an augmentation of the volume of urine emitted by reference to control animals, the volume being measured for 6 hours following administration.
By way of example, the following Table XI lists the results obtained by the administration of 25 mg/Kg/p.o. of different compounds of formula (I).

[8] = test system: isolated heart of a guinea-pig; test: Vasodilatatory: coronary flow of isolated heart; details: 1 μg/ml in perfusion liquid
Description: The compounds of formula (I) are capable of augmenting the flow of the coronary vessels of the isolated heart of a guinea-pig when said compounds are added in the perfusion liquid of said organ.
By way of example, there can be found in the following Table X, the percentage augmentation of the flow of the isolated heart of a guinea-pig by adding different compounds of formula (I) to the perfusion liquid, in a concentration of 1 μg/ml.

[9] = test system: ventricular fibrillations provoked by the inhalation of chloroform; test: Antiarythmic: protection against ventricular fibrillations provoked by inhalation of chloroform; type: in vivo; details: i.p., mouse
Text: Administered by intraperitoneal means, the compounds of formula (I) are capable of protecting the mouse against the ventricular fibrillations provoked by the inhalation of chloroform.

[10] = test system: gastric secretion measured after Shay ligature; test: Gastric antisecretory: reduction of gastric secretion after Shay ligature, rat; type: in vivo; details: 50 mg/Kg/i.d.
Description: Administered by intraduodenal means to a rat, the compounds of formula (I) are capable of reducing the gastric secretion measured after Shay ligature.
By way of example, the following Table V gives the results obtained by administration of 50 mg/Kg/i.d. of different compounds of formula (I).

## O=C(CCn1c(CN2CCOCC2)nc2ccccc21)c1ccc(Cl)cc1 [72 359]
[1]
  Percentage reduction of Shay ulcers: 35%
[2]
  Percentage mortality: 0%

## COc1ccc(C(=O)CCn2c(CN3CCCCC3)nc3ccccc32)cc1OC [72 377]
[3]
  Percentage reduction of number of explorations in the escape enclosure: 30%
[1]
  Percentage reduction of Shay ulcers: 55%
[2]
  Percentage mortality: 0%

## CCN(CC)Cc1nc2ccccc2n1CCC(=O)c1ccc(Cl)cc1 [72 390]
[4]
  Percentage reduction of sub-plantar oedema: 60%
[1]
  Percentage reduction of Shay ulcers: 40%
[2]
  Percentage mortality: 0%

## COc1ccc(C(=O)CCn2c(CN3CCOCC3)nc3ccccc32)cc1OC [72 391]
[5]
  Percentage reduction of number of painful stretchings: 60%
[3]
  Percentage reduction of number of explorations in the escape enclosure: 50%
[6]
  Percentage inhibition of bronchoconstriction: 100%
[2]
  Percentage mortality: 0%

## COc1cc(C(=O)CCn2c(CN3CCCC3)nc3ccccc32)cc(OC)c1OC [72 414]
[6]
  Percentage inhibition of bronchoconstriction: 50%
[7]; 150 mg/Kg/p.o.
  Percentage of rats with high blood pressure whose systolic arteriel pressure is returned to normal: 75%

## Cc1ccc(C(=O)CCn2c(CN3CCOCC3)nc3ccccc32)c(C)c1 [72 447]
[4]
  Percentage reduction of sub-plantar oedema: 40%
Volume of urine emitted
  Percentage augmentation of urinary elimination: 70%
[6]
  Percentage inhibition of bronchoconstriction: 50%
[1]
  Percentage reduction of Shay ulcers: 35%
[2]
  Percentage mortality: 0%

## CCCCOc1ccc(C(=O)CCn2c(CN3CCCCC3)nc3ccccc32)cc1 [72 464]
[3]
  Percentage reduction of number of explorations in the escape enclosure: 30%
[2]
  Percentage mortality: 0%

## Cc1ccc(C(=O)CCn2c(CN3CCOCC3)nc3ccccc32)cc1 [72 478]
[8]
  Percentage augmentations of flow of isolated heart of a guinea-pig: 50%
[2]
  Percentage mortality: 0%

## CN(C)Cc1nc2ccccc2n1CCC(=O)c1ccc(Cl)cc1 [72 479]
[9]
  DE 50: 200 mg/Kg/i.p.
[8]
  Percentage augmentations of flow of isolated heart of a guinea-pig: 80%
[1]
  Percentage reduction of Shay ulcers: 30%
[7]; 200 mg/Kg/p.o.
  Percentage of rats with high blood pressure whose systolic arteriel pressure is returned to normal: 50%
[2]
  Percentage mortality: 0%

## O=C(CCn1c(CN2CCCCC2)nc2ccccc21)c1ccc(F)cc1 [72 487]
[5]
  Percentage reduction of number of painful stretchings: 80%
[10]
  Percentage reductions in volume of gastric secretion: 40%
[6]
  Percentage inhibition of bronchoconstriction: 60%

## O=C(CCn1c(CN2CCCCCC2)nc2ccccc21)c1ccc(F)cc1 [72 488]
[9]
  DE 50: 200 mg/Kg/i.p.
[4]
  Percentage reduction of sub-plantar oedema: 50%
[1]
  Percentage reduction of Shay ulcers: 25%
[2]
  Percentage mortality: 0%

## COc1ccc(C(=O)CCn2c(CN(C)C)nc3ccccc32)cc1OC [72 490]
[8]
  Percentage augmentations of flow of isolated heart of a guinea-pig: 140%
[1]
  Percentage reduction of Shay ulcers: 30%

## O=C(CCn1c(CN2CCCCC2)nc2ccccc21)c1ccccc1 [72 491]
[5]
  Percentage reduction of number of painful stretchings: 65%
[7]; 200 mg/Kg/p.o.
  Percentage of rats with high blood pressure whose systolic arteriel pressure is returned to normal: 50%
[2]
  Percentage mortality: 0%

## O=C(CCn1c(CN2CCCC2)nc2ccccc21)c1ccccc1 [72 493]
[10]
  Percentage reductions in volume of gastric secretion: 25%

## O=C(CCn1c(CN2CCOCC2)nc2ccccc21)c1ccccc1 [72 494]
[4]
  Percentage reduction of sub-plantar oedema: 40%
[10]
  Percentage reductions in volume of gastric secretion: 25%
[2]; in vivo, po
  mortality: 0%
